This is an account of results in patent US6949571B2, “1,2-dihydropyridine compounds, process for preparation of the same and use thereof” (Eisai Co., Ltd., priority 2000, dated 2005).

SMILES strings stand for the structures.

The IC50 is the midpoint of a concentration-inhibition curve.
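Note: primary rat embryonic cortical neurons grown on an astrocyte layer in 96-well plates, used after at least 8 to 10 days in culture, Fura2-AM fluorescence ratio at 340/380 nm excitation.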

The experiment deals with AMPA receptor. Conditions: Table 2; suppression of AMPA-induced calcium influx into nerve cells.
Regarding `Nc1ccc(-c2cc(-c3ccccn3)cn(-c3ccccc3)c2=O)cc1` [Example 221, 3-(4-Aminophenyl)-1-phenyl-5-(2-pyridyl)-1,2-dihydropyridin-2-one], the IC50 was 7100 nM.

Regarding `Cc1ccc(-n2cc(-c3ccccn3)cc(-c3ccccc3C#N)c2=O)cc1N` [Example 222, 3-(2-Cyanophenyl)-5-(2-pyridyl)-1-(2-aminotoluen-4-yl)-1,2-dihydropyridin-2-one], the half-inhibitory concentration (IC50) turned out to be 200 nM.

Take `CS(=O)(=O)Nc1ccccc1-c1cc(-c2ccccn2)cn(-c2ccccc2)c1=O` [Example 226, 3-[2-(Methylsulfonylamino)phenyl]-1-phenyl-5-(2-pyridyl)-1,2-dihydropyridin-2-one]: the IC50 was 9500 nM.

As for `CS(=O)(=O)Nc1ccc(-c2cc(-c3ccccn3)cn(-c3ccccc3)c2=O)cc1` [Example 227, 3-[4-(Methanesulfonylamino)phenyl]-1-phenyl-5-(2-pyridyl)-1,2-dihydropyridin-2-one], the IC50 worked out at 1800 nM.

With `CS(=O)(=O)Nc1cccc(-c2cc(-c3ccccn3)cn(-c3ccccc3)c2=O)c1` [Example 228, 3-[3-(Methanesulfonylamino)phenyl]-1-phenyl-5-(2-pyridyl)-1,2-dihydropyridin-2-one], the half-inhibitory concentration (IC50) came to 2700 nM.

On to `CC(=O)Nc1cccc(-c2cc(-c3ccccc3C#N)c(=O)n(-c3ccccc3)c2)n1` [Example 229, 5-[(6-Acetylamino)pyridin-2-yl]-3-(2-cyanophenyl)-1-phenyl-1,2-dihydropyridin-2-one], for which the IC50 worked out at 4200 nM.

Consider `CC(=O)Nc1ccccc1-c1cc(-c2ccccn2)cn(-c2ccccc2)c1=O` [Example 230, 3-[2-(Acetylamino)phenyl]-1-phenyl-5-(2-pyridyl)-1,2-dihydropyridin-2-one], for which the IC50 is 4000 nM.

On to `CC(=O)Nc1cccc(-c2cc(-c3ccccn3)cn(-c3ccccc3)c2=O)c1` [Example 232, 3-[3-(Acetylamino)phenyl]-1-phenyl-5-(2-pyridyl)-1,2-dihydropyridin-2-one], for which the IC50 was determined as 4300 nM.

For the compound `CN(C)c1ccc(-c2cc(-c3ccccn3)cn(-c3ccccc3)c2=O)cc1` [Example 234, 3-(4-Dimethylaminophenyl)-1-phenyl-5-(2-pyridyl)-1,2-dihydropyridin-2-one], the IC50 amounted to 900 nM.

Turning to `N#Cc1ccccc1-c1cc(-c2cccc(C(N)=O)n2)cn(-c2ccccc2)c1=O` [Example 235, 5-[(6-Aminocarbonyl)pyridin-2-yl]-3-(2-cyanophenyl)-1-phenyl-1,2-dihydropyridin-2-one], the IC50 was found to be 4400 nM.

Regarding `N#Cc1cccc(-c2cc(-c3ccccc3C#N)c(=O)n(-c3ccccc3)c2)n1` [Example 236, 3-(2-Cyanophenyl)-5-(2-cyanopyridin-6-yl)-1-phenyl-1,2-dihydropyridin-2-one], the IC50 is 600 nM.

With `O=c1c(-c2cccc(O)c2)cc(-c2ccccn2)cn1-c1ccccc1` [Example 237, 3-(3-Hydroxyphenyl)-1-phenyl-5-(2-pyridyl)-1,2-dihydropyridin-2-one], the IC50 is 1500 nM.

Consider `O=c1c(-c2ccc(O)cc2)cc(-c2ccccn2)cn1-c1ccccc1` [Example 238, 3-(4-Hydroxyphenyl)-1-phenyl-5-(2-pyridyl)-1,2-dihydropyridin-2-one], for which the IC50 came out at 600 nM.

`CN(C)CCOc1cccc(-n2cc(-c3ccccn3)cc(-c3ccccc3C#N)c2=O)c1` [Example 239, 3-(2-Cyanophenyl)-1-[3-(dimethylaminoethoxy)phenyl]-5-(2-pyridyl)-1,2-dihydropyridin-2-one]: the IC50 came to 300 nM.

In the case of `N#Cc1ccccc1-c1cc(-c2ccccn2)cn(-c2cccc(OCCN3CCCCC3)c2)c1=O` [Example 240, 3-(2-Cyanophenyl)-1-[3-(piperidinoethoxy)phenyl]-5-(2-pyridyl)-1,2-dihydropyridin-2-one], the IC50 amounted to 100 nM.

As to `N#Cc1ccccc1-c1cc(-c2ccccn2)cn(-c2cccc(OCCN3CCCC3)c2)c1=O` [Example 241, 3-(2-Cyanophenyl)-1-[3-(pyrrolidinoethoxy)phenyl]-5-(2-pyridyl)-1,2-dihydropyridin-2-one], the IC50 was found to be 400 nM.

On to `CC(C)N(CCOc1cccc(-n2cc(-c3ccccn3)cc(-c3ccccc3C#N)c2=O)c1)C(C)C` [Example 242, 3-(2-Cyanophenyl)-1-[3-(diisopropylaminoethoxy)phenyl]-5-(2-pyridyl)-1,2-dihydropyridin-2-one], for which the IC50 amounted to 500 nM.

Turning to `CN(C)CCCOc1cccc(-n2cc(-c3ccccn3)cc(-c3ccccc3C#N)c2=O)c1` [Example 243, 3-(2-Cyanophenyl)-1-[3-(dimethylaminopropyloxy)phenyl]-5-(2-pyridyl)-1,2-dihydropyridin-2-one], the IC50 is 1200 nM.

With `N#Cc1ccccc1-c1cc(-c2ccccn2)cn(-c2cccc(OCCCN3CCCCC3)c2)c1=O` [Example 244, 3-(2-Cyanophenyl)-1-[3-(piperidinopropyloxy)phenyl]-5-(2-pyridyl)-1,2-dihydropyridin-2-one], the IC50 worked out at 1800 nM.

As to `N#Cc1ccccc1-c1cc(-c2ccccn2)cn(-c2cccc(OCCN3CCOCC3)c2)c1=O` [Example 245, 3-(2-Cyanophenyl)-1-[3-(morpholinoethoxy)phenyl]-5-(2-pyridyl)-1,2-dihydropyridin-2-one], the IC50 is 1200 nM.

Turning to `CCN(CC)CCOc1cccc(-n2cc(-c3ccccn3)cc(-c3ccccc3C#N)c2=O)c1` [Example 246, 3-(2-Cyanophenyl)-1-[3-(diethylaminoethoxy)phenyl]-5-(2-pyridyl)-1,2-dihydropyridin-2-one], the IC50 stood at 1100 nM.

With `CN(C)CCOc1cccc(-c2cc(-c3ccccn3)cn(-c3ccccc3)c2=O)c1` [Example 247, 3-[3-(Dimethylaminoethoxy)phenyl]-1-phenyl-5-(2-pyridyl)-1,2-dihydropyridin-2-one], the IC50 came to 3600 nM.

In the case of `CN(C)CCOc1ccc(-c2cc(-c3ccccn3)cn(-c3ccccc3)c2=O)cc1` [Example 248, 3-[4-(Dimethylaminoethoxy)phenyl]-1-phenyl-5-(2-pyridyl)-1,2-dihydropyridin-2-one], the IC50 was determined as 3400 nM.

In the case of `N#Cc1ccccc1-c1cc(-c2ccccn2)cn(-c2cccc(OCCCCN3CCCCC3)c2)c1=O` [Example 249, 3-(2-Cyanophenyl)-1-[3-(4-piperidinobutyl-1-oxy)phenyl]-5-(2-pyridyl)-1,2-dihydropyridin-2-one], the IC50 is 300 nM.

Consider `N#Cc1ccccc1-c1cc(-c2ccccn2)cn(-c2cccc(CN3CCCC3)c2)c1=O` [Example 250, 3-(2-Cyanophenyl)-1-[3-(pyrrolidinomethyl)phenyl]-5-(2-pyridyl)-1,2-dihydropyridin-2-one], for which the IC50 was determined as 900 nM.

As to `CC(=O)N1CCN(Cc2cccc(-n3cc(-c4ccccn4)cc(-c4ccccc4C#N)c3=O)c2)CC1` [Example 251, 1-[3-[(4-Acetylpiperazino)methyl]phenyl]-3-(2-cyanophenyl)-5-(2-pyridyl)-1,2-dihydropyridin-2-one], the IC50 is 900 nM.

As for `N#Cc1ccccc1-c1cc(-c2ccccn2)cn(-c2ccc([N+](=O)[O-])cc2)c1=O` [Example 252, 3-(2-Cyanophenyl)-1-(4-nitrophenyl)-5-(2-pyridyl)-1,2-dihydropyridin-2-one], the IC50 was determined as 300 nM.

Turning to `O=c1c(-c2cnccn2)cc(-c2ccccn2)cn1-c1ccccc1` [Example 253, 1-Phenyl-3-(2-pyrazyl)-5-(2-pyridyl)-1,2-dihydropyridin-2-one], the IC50 worked out at 4700 nM.

In the case of `O=c1c(-c2nccs2)cc(-c2ccccn2)cn1-c1ccccc1` [Example 255, 1-Phenyl-5-(2-pyridyl)-3-(2-thiazoyl)-1,2-dihydropyridin-2-one], the IC50 came to 500 nM.

As to `O=c1c(-c2ccncn2)cc(-c2ccccn2)cn1-c1ccccc1` [Example 256, 1-Phenyl-3-(4-pyrimidinyl)-5-(2-pyridyl)-1,2-dihydropyridin-2-one], the IC50 stood at 1200 nM.

In the case of `O=c1c(-c2cncnc2)cc(-c2ccccn2)cn1-c1ccccc1` [Example 257, 1-Phenyl-3-(5-pyrimidinyl)-5-(2-pyridyl)-1,2-dihydropyridin-2-one], the IC50 stood at 3700 nM.

For the compound `O=c1c(-c2ccnnc2)cc(-c2ccccn2)cn1-c1ccccc1` [Example 259, 1-Phenyl-3-(4-pyridazyl)-5-(2-pyridyl)-1,2-dihydropyridin-2-one], the IC50 is 2000 nM.

As for `COc1cccc(-c2cc(-c3ccccn3)cn(-c3ccccc3)c2=O)n1` [Example 260, 3-(2-Methoxypyridin-6-yl)-1-phenyl-5-(2-pyridyl)-1,2-dihydropyridin-2-one], the IC50 was 2700 nM.

In the case of `O=c1c(-c2cccnc2F)cc(-c2ncccn2)cn1-c1cccnc1` [Example 263, 3-(2-Fuluoropyridin-3-yl)-1-(3-pyridyl)-5-(2-pyrimidinyl)-1,2-dihydropyridin-2-one], the IC50 stood at 1000 nM.

Take `N#Cc1ncccc1-c1cc(-c2ncccn2)cn(-c2cccnc2)c1=O` [Example 265, 3-(2-Cyanopyridin-3-yl)-1-(3-pyridyl)-5-(2-pyrimidinyl)-1,2-dihydropyridin-2-one]: the IC50 was determined as 700 nM.

Consider `N#Cc1ccccc1-c1cc(-c2ncccn2)cn(-c2cccc([N+](=O)[O-])c2)c1=O` [Example 266, 3-(2-Cyanophenyl)-1-(3-nitrophenyl)-5-(2-pyrimidinyl)-1,2-dihydropyridin-2-one], for which the IC50 came to 100 nM.

As for `O=c1c(-c2cscn2)cc(-c2ccccn2)cn1-c1ccccc1` [Example 267, 1-Phenyl-5-(2-pyridyl)-3-(thiazol-4-yl)-1,2-dihydropyridin-2-one], the IC50 was found to be 1000 nM.

As for `O=C1C=C(c2cc(-c3ccccn3)cn(-c3ccccc3)c2=O)CCC1` [Example 268, 3-(3-Oxo-1-cyclohexen-1-yl)-1-phenyl-5-(2-pyridyl)-1,2-dihydropyridin-2-one], the IC50 was found to be 4200 nM.

For the compound `O=c1c(C2=COCCO2)cc(-c2ccccn2)cn1-c1ccccc1` [Example 269, 3-(5,6-Dihydro-1,4-dioxin-2-yl)-1-phenyl-5-(2-pyridyl)-1,2-dihydropyridin-2-one], the IC50 came to 1900 nM.

With `CC(=O)c1ccccc1-c1cc(-c2ccccn2)cn(-c2ccccc2)c1=O` [Example 272, 3-(2-Acetylphenyl)-5-(2-pyridyl)-1-phenyl-1,2-dihydropyridin-2-one], the IC50 is 3300 nM.
